From patent publication US11197885B2, “Collagen enhancing agent made from low acyl gellan gum, methods of making and methods of using the same” (The University of Toledo, priority 2015, dated 2021)

Experiments:
[1] = system: mouse cortical neurons (E17, DIV5); assay: LIVE/DEAD assay, pre-treatment of mouse cortical neurons before 4HNE, H2O2 or Aβ42; assay type: cell-based; settings: pre-treatment 24 h (same concentrations)
Source text: The protective effect of polysaccharides on primary cortical neurons from 4HNE, H2O2, and Aβ42 peptide (Sigma) was examined using LIVE/DEAD® Viability/Cytotoxicity Assay Kit (Life Technologies). Female pregnant mice (BALB/C, E17, Charles River Laboratories International, Inc.) or female pregnant SD rats (E17, bred in house) were anesthetized and dissected to obtain 8-9 embryos per animal. Cortical neurons were isolated from embryonic brains and differentiated on poly-L-lysine-coated coverslips in B27/neurobasal medium. For drug treatment before free radical treatment, mouse cortical neurons (5 days in vitro [DIV5]) were treated with vehicle (H2O), 1 μM of 5 kD dextran (Sigma), alginate (Sigma), midi-GAGR, 0.01 μM of high acyl gellan gum (HA-GAGR, CPKelco Co.), or 0.1 μM of LA-GAGR for 24 h and then treated with 10 μM 4HNE or 50 μM H2O2 for 24 h, or 2 μM Aβ42 peptide for 48 h prior to viability/cytotoxicity assay. For drug co-treatment with free radicals, rat cortical neurons (DIV5) were treated with 1 μM of dextran, alginate, or midi-GAGR, 0.01 μM of HA-GAGR, or 0.1 μM of LA-GAGR along with either 10 μM 4HNE (24 h) or 2 μM Aβ42 peptide (48 h). To examine the extent to which midi-GAGR-mediated neuroprotection depends on FGFR1, rat cortical neurons (E17, DIV5) were pre-treated with 4 μM SU5402 (Sigma) for 6 h and treated with 10 μM 4HNE and either vehicle or 1 μM midi-GAGR for 24 h prior to cell viability/cytotoxicity assay. As controls, neurons were treated with SU5402, midi-GAGR, 4HNE, 4HNE plus midi-GAGR, or SU5402 plus midi-GAGR.
For cell viability/cytotoxicity measurement, neurons on glass coverslips were incubated in 1×PBS containing 2 μM calcein AM (live cells: green) and 4 μM ethidium homodimer-1 (dead cells: red) for 10 min at 37° C. Immediately thereafter, neurons were imaged by 10×objective using a fluorescence Olympus IX71 microscope (Olympus America Inc., Center Valley, Pa.) and, for the acquisition of high-quality images, using TCS SP5 multi-photon laser scanning confocal microscope.
Midi-GAGR attenuated neurite atrophy caused by free reactive radicals. It is now shown herein that midi-GAGR protect neurons from the death caused by free radical insults. The extent to which midi-GAGR protects the primary culture of rodent cortical neurons from 4HNE and H2O2 was determined. In addition to the radicals, amyloid β peptide (Aβ42) was also tested. Aβ42 peptide is a major causative factor that causes oxidative stress and neuron death. Mouse cortical neurons (E17, DIV5) were treated with 10 μM 4HNE (24 h), 50 μM H2O2 (24 h), or 2 μM Aβ42 peptide (48 h) after the treatment of the neurons with vehicle (H2O), midi-GAGR (1 μM), dextran (1 μM), alginate (1 μM), LA-GAGR (0.1 μM), or HA-GAGR (0.01 μM) for 24 h. The concentrations of 4HNE, H2O2, and Aβ42 peptide were chosen according to their patho-physiological concentrations. The concentrations of LA-GAGR and HA-GAGR were chosen because, within the same volume, the total numbers of sugar units in the polysaccharides at the concentrations are close to that of 1 μM midi-GAGR. The viability of neurons was assessed using LIVE/DEAD® Viability/Cytotoxicity Assay Kit in which membrane-permeant calcein AM is cleaved by esterase in live cells, thus yielding green fluorescence, and membrane-impermeant ethidium homodimer-1 stains the nucleic acids of plasma membrane-compromised cells with red fluorescence. The numbers of green (live) and red (dead) neurons in each condition were counted using Metamorph. Although the intensities of green fluorescent signals in neurons treated with either free radicals or Aβ42 peptide were weak, the neurons were included in the counting. About 8-9% of vehicle-treated neurons died during the process of live/dead cell assay (FIGS. 23A-23F, FIGS. 24A-24C).

[2] = system: phosphorylated CREB in differentiated PC12 cells; assay: nuclear p-CREB immunostaining in differentiated PC12 cells; assay type: cell-based; settings: 1 μM, 24 h
Method: Differentiated PC12 cells and mouse embryonic cortical neurons (E17, DIV14) were treated with mock, dextran, alginate, HA-GAGR, or midi-GAGR (1 μM) for 24 h and fixed in 3.7% paraformaldehyde. The fixed cells and neurons were immunostained with antibodies against α-tubulin and phosopho-CREB (p-CREB) along with DAPI (nucleus).

Substance: dextran
- percent of neuron death ([1]; then 2 μM Aβ42 peptide 48 h): did not decrease
- percent of neuron death ([1]; then 50 μM H2O2 24 h): did not reduce
- increase in levels of nuclear p-CREB [2]: not significantly increased
